Data as given in patent US20100286229A1, “Modulation of Androgen Receptor for Treatment of Prostate Cancer” (priority 2005, published 2010).
“Also recorded” adds a separate entry of the source.

Tests used:
Type in all cases: cell-based, human
[1] = tested on: AR overexpressing cells; assay: Growth of cells transduced with AR lentivirus in CSS with or without DHT; conditions: 0.3 nM DHT
Method: (§1) Cells were plated in 6 well plates at 10^5/well. The next day, cells were transduced with concentrated GFP or AR lentiviruses, yielding 50-100% transduction efficiency. […] The medium was changed every 48 h. Cells were collected for Western blotting and luciferase assays at different time points or fixed and stained with methylene blue on day 8 after transduction.
(§2) The growth of cells overexpressing AR, cultured in CSS with no DHT, was not different from GFP expressing cells. Thus, this growth reflects the general sensitivity of certain type of cells to the presence of steroids in medium (FIG. 13A).

[2] = tested on: Hela cells; assay: Growth of AR-negative Hela cells with DHT (data not shown)
[3] = tested on: CWR22R cells; assay: Cell growth by methylene blue staining in CSS medium with DHT, CWR22R; conditions: 10 nM DHT
[4] = tested on: AR; assay: AR protein level in cells transduced with AR-lentivirus, CSS medium with or without DHT (Western blotting); conditions: DHT-containing media vs CSS without DHT
Method: as §1, §2

[5] = tested on: AR; assay: ARE-Luc (AR-dependent luciferase) reporter activity in CaP cells in CSS medium with DHT
[6] = tested on: p21; assay: p21 protein level in lysates of LNCaP cells treated with DHT; conditions: 1 nM and 10 nM DHT compared to 0 nM, 0.1 nm DHT or FBS
Text: Thus increased activity of AR due to its overexpression or hyper-stimulation with ligand inhibits cell growth, possibly due to induction of p21.

[7] = tested on: proteasomes; assay: AR protein level in HeLa cell variants treated with proteasome inhibitor PS341
[8] = tested on: AR mRNA; assay: ARE-Luc reporter cotransfection with anti-AR shRNA constructs; conditions: for ARE-Luc reporter activity: C4-2 cells, control shRNAs against GFP or FasL; for ARE-Luc reporter activity on endogenous AR: LNCaP cells, 48 h, control shGFP, shFasL
Text: Based on what was known from clinical oncology and AR mutation databases we hypothesized that complete inhibition of AR function would be toxic for both androgen-dependent and androgen-refractory prostate cancer cells, because prostate cancer cells very rarely lose AR signaling during cancer progression. To completely block AR activity in these cells we used an RNAi approach (FIG. 11). We synthesized several shRNA constructs targeting different portions of AR mRNA using a loop model (see Example 4 above).
Reporter assays were performed by transiently transfecting cells with pARE-Luc plasmid and pcDNA-3.1 hygro plasmids (empty or AR), or plasmids with shRNAs in different proportions. Transfection efficiency was normalized by citransfection of pCMV-LacZ plasmid or pEGFP-mito (Clontech). Reporter activity was measured using a Luciferase Assay System (Promega) at 48 h.

[9] = tested on: LNCaP cells; assay: Growth after retroviral anti-AR shRNA transduction and hygromycin selection, LNCaP; conditions: retroviral vector, hygromycin selection, control anti-GFP
Text: (§3) We confirmed that inhibition of AR signaling is growth suppressive for androgen-insensitive versions of CaP (FIG. 5). Based on what is known from clinical oncology and AR mutation databases, we hypothesized that complete inhibition of AR function would be deleterious for both androgen-dependent and androgen refractory prostate cancer cells since CaP cells very rarely loose AR signaling during progression. To estimate the dependency of prostate cancer cells on the expression of AR, we transduced them with retroviral vector expressing anti-AR siRNA with subsequent selection on hygromycin. Control cells were transduced with anti-GFP siRNA vector. Transduction efficiency was estimated in AR-negative cells, DU145.
(§4) We also estimated the dependency of prostate cancer cells on the expression of AR by transducing cells with a retroviral vector expressing anti-AR shRNA, followed by selection on hygromycin (FIG. 12). […]
(§5) For the experiments in FIG. 12, retroviral packaging and transduction were performed as follows. […] 10-14 days later, after complete death of control untransduced cells, the number of colonies was quantified, or cells were used for further experiments. […]
(§6) For the experiment in FIG. 12B, the number of colonies on each plate was counted and divided by number of colonies of AR-negative DU145 cells. […]

[10] = tested on: CaP cells expressing endogenous AR; assay: Growth after retroviral anti-AR shRNA transduction and hygromycin selection, CaP cells expressing endogenous AR; conditions: retroviral vector, hygromycin selection; for growth of CaP cells expressing endogenous AR: all tested CaP cells, control anti-GFP
Text: as §3
We also estimated the dependency of prostate cancer cells on the expression of AR by transducing cells with a retroviral vector expressing anti-AR shRNA, followed by selection on hygromycin (FIG. 12). Control cells were transduced with anti-GFP shRNA vector; transduction efficiency was estimated on AR negative cells (DU145) transduced with the same viruses.
For the experiments in FIG. 12, retroviral packaging and transduction were performed as follows. Briefly, Ampho cells (Clontech) were transfected with retroviral expression vector. Medium with virus was collected at 48 h and immediately transferred onto the target cells. 8 μg/ml of polybrene (Sigma) was added to transduced cells. 24 h later, the medium was changed with fresh medium containing the appropriate antibiotic for selecting transduced cells. 10-14 days later, after complete death of control untransduced cells, the number of colonies was quantified, or cells were used for further experiments. Retroviral shRNA vectors were generated by inserting the H1 promoter and a cassette for cloning of shRNA into the right LTR of pLPCHygro plasmid (Clontech).
For the experiment in FIG. 12B, the number of colonies on each plate was counted and divided by number of colonies of AR-negative DU145 cells. The number of colonies of cells transduced with shRNA against GFP was set as 1. DU145 cells were obtained from ATCC.

[11] = tested on: C4-2 cells; assay: Growth after retroviral anti-AR shRNA transduction and hygromycin selection, C4-2; conditions: retroviral vector, hygromycin selection, control anti-GFP
Text: as §3, §4, §5, §6

[12] = tested on: endogenous AR; assay: Knock down of endogenous AR in CaP cells infected with lentiviral siAR6 and ARΔLBD; conditions: simultaneous infection with siAR6 and ARΔLBD lentiviral vectors
Text: To generate completely ligand independent CaP cells, we simultaneously infected cells with lentiviral vectors expressing siAR6 and ARΔLBD.

[13] = tested on: AR mRNA; assay: ARE-Luc activity with siRNAs against translated and untranslated regions of AR mRNA; conditions: C4-2 cells, endogenous AR
Text: We next eliminated expression of the endogenous ligand-dependent AR in a way that would not affect the expression of the ARΔLBD mutant. To achieve this, we generated a series of lentiviral vectors expressing siRNA's against untranslated regions of AR mRNA that are missing in the generated ARΔLBD-expressing constructs. We tested their activity in C4-2 prostate cancer cells that have endogenous AR and in H1299 cells expressing only exogenous AR from the transduced construct. While all siRNA's against translated and untranslated regions of AR were active in inhibition of ARE-Luc activity in C4-2 cells, only siRNA's against translated regions were active in H1299 cells (FIG. 6).

C[C@]12CCC(=O)C[C@@H]1CC[C@@H]1[C@@H]2CC[C@]2(C)[C@@H](O)CC[C@@H]12 [DHT, dehydrotestosterone]
growth of AR overexpressing cells compared to GFP expressing control [1]: suppression of growth | growth in response to DHT [2]: not affected | growth at high doses of DHT [3]: minor growth suppressing effect | AR levels in cells transduced with AR-lentivirus [4]: reduced AR levels to those observed prior transduction | reporter induction by DHT ([5]; CWR22R and 22Rv1 cells): up to 3.5 fold | ARE-Luc reporter activation by DHT ([5]; CWR22R cells with shAR and ARDLBD): do not respond | reporter response to addition of DHT ([5]; LNCaP, C4-2 and CWR22R cells, CSS containing 0-10 nm DHT): reporter activation | level of p21 [6]: higher

CC(C)C[C@H](NC(=O)[C@H](Cc1ccccc1)NC(=O)c1cnccn1)B(O)O [PS341]
ARΔLBD protein level ([7]; HeLa cells with ARΔLBD): remained unchanged | wtAR protein level ([7]; HeLa cells with wtAR): increased; also recorded: accumulation of wild type AR protein

AR1: siRNA/shRNA against AR, sequence GCTCAAGGATGGAAGTGCA, SEQ ID NO 3, target 1108-1126 (listed as DNA, chemistry not given here)
ARE-Luc reporter activity [8]: inhibit ARE-Luc reporter activity | ARE-Luc reporter activity on endogenous AR [8]: inhibit ARE-Luc reporter activity | ARE-Luc reporter activity on endogenous AR ([8]; listed as shAR1): maximal activity | cell growth [9]: inhibited the growth | growth of CaP cells expressing endogenous AR [10]: growth inhibitory effect; also recorded: inhibits growth | cell growth [11]: inhibited the growth

AR2: siRNA/shRNA against AR, sequence GCTGCTCCGCTGACCTTAA, SEQ ID NO 4, target 1642-1660 (listed as DNA, chemistry not given here)
ARE-Luc reporter activity [8]: inhibit ARE-Luc reporter activity | ARE-Luc reporter activity on endogenous AR [8]: inhibit ARE-Luc reporter activity | ARE-Luc reporter activity on endogenous AR ([8]; listed as shAR2): did not completely block AR transcription | growth of CaP cells expressing endogenous AR [10]: no inhibitory activity

AR3: siRNA/shRNA against AR, sequence TCTCTGTGCAAGTGCCCAA, SEQ ID NO 5, target 3814-3832 (listed as DNA, chemistry not given here)
ARE-Luc reporter activity [8]: inhibit ARE-Luc reporter activity | ARE-Luc reporter activity on endogenous AR [8]: inhibit ARE-Luc reporter activity | ARE-Luc reporter activity on endogenous AR ([8]; listed as shAR3): did not completely block AR transcription | growth of CaP cells expressing endogenous AR [10]: no inhibitory activity | growth-inducing property on AR expressing CaP cells [10]: some growth-inducing property

AR6: siRNA against untranslated region of AR mRNA, sequence GTCAGGTCTTCAGTAGCCA, SEQ ID NO 6, target 688-706 (listed as DNA, chemistry not given here)
knock down of endogenous AR [12]: nearly complete knock down of endogenous AR | inhibition of ARE-Luc activity [13]: most effective
